Source: paper PMC6982808, “Design and Biological Evaluation of Colchicine-CD44-Targeted Peptide Conjugate in an In Vitro Model of Crystal Induced Inflammation” (Molecules, 2019)
Ends that are not written are not given here.

Assays:
[1] = target: T1, recombinant human CD44 receptor (Homo sapiens, UniProt P16070); experiment: ELISA binding of coated P6 peptide or HA to CD44-IgG Fc fusion protein; conditions: for binding to the CD44 receptor (ELISA absorbance at 450 nm): wells coated 1 ng/mL to 1 μg/mL, CD44-IgG Fc 0.1 µg/mL, 1 h room temperature, three independent experiments
T1 construct: purchased R&D Systems
T1 sequence (P16070 with tags, fused parts or gaps limits assumed): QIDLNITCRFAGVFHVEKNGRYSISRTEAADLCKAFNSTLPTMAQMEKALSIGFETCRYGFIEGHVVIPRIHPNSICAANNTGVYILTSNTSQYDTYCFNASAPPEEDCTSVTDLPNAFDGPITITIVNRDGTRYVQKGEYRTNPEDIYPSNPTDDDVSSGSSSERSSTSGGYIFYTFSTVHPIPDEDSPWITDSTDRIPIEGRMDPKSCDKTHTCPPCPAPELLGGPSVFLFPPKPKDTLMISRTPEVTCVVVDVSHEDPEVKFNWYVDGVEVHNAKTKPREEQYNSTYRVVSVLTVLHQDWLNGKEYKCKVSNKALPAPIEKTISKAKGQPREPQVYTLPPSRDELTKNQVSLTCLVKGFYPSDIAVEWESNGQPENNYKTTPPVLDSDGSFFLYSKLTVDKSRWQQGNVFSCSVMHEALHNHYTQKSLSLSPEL
Experimental: Wells of high-binding microtiter plates were coated with either the P6 peptide or high molecular weight HA (molecular weight >1 million Da) in serial concentrations between 1 ng/mL and 1 μg/mL overnight in phosphate buffered saline (PBS) (100 µL per well) at 4 °C. […] CD44-IgG Fc fusion protein (R&D Systems) (0.1 µg/mL) in PBS + 0.05% Tween 20 (100 µL per well) was added to both coated and uncoated wells and incubated for 1 h at room temperature. Following washing with PBS + 0.1% Tween 20, anti-human IgG Fc-HRP (1:1000) was added and incubated at room temperature for 1 h, followed by washing three times with PBS + 0.05% Tween 20. Turbo TMB-ELISA substrate solution was added (100 µL per well), and absorbance intensity was determined at 450 nm. Absorbance values in the […] to adjust for any non-specific binding by CD44-IgFc.

THP-1 macrophages [2] = experiment: MSU crystal phagocytosis by THP-1 macrophages (flow cytometry side-scatter, % cells in P2 region); format: cell-based, human
Experimental: THP-1 macrophages (500,000 cells per well) were treated with MSU crystals (100 μg/mL) ± HA (100 μg/mL) for 4 h. Subsequently, macrophages were collected, pelleted, and washed with PBS. MSU phagocytosis was determined by analyzing the change in cell side-scatter using a flow cytometer. Two regions of interest were identified: the P1 region representing the THP-1 macrophage population in the absence of MSU crystal exposure and the P2 region with increased cell side scatter indicative of MSU phagocytosis. Data are presented as the percentage of cells in the P2 region across different experimental groups.
Subsequently, cells were treated with MSU crystals (100 μg/mL) for 4 h. MSU phagocytosis by THP-1 macrophages was determined using flow cytometry as described above.

[3] = system: CD44 receptor on THP-1 macrophages; experiment: CD44 surface expression on THP-1 macrophages under conditions of inflammation (flow cytometry); format: cell-based, human; conditions: 24 h, serum-free medium
Experimental: THP-1 monocytes were cultured in RPMI 1640 medium supplemented with 10% heat-inactivated FBS, 10 mM HEPES, 2 mM glutamine, 100 U/I penicillin, and 100 μg/mL streptomycin and maintained at 37 °C and 5% CO2. THP-1 monocytes were differentiated into THP-1 macrophages using 50 ng/mL phorbol-12-myristate 13-acetate (PMA) for 24 h. Subsequently, adherent cells were washed twice with serum-free medium and rested for another 24 h in PMA-free RPMI + 10% FBS medium. CD44 expression on THP-1 macrophages was conducted using flow cytometry following incubation with the CD44-specific antibody (1:1000 dilution) for 1 h followed by cell pelleting and washing the cell pellet with PBS. THP-1 macrophages were then incubated with DyLight 488 goat anti-mouse IgG at 1:1000 dilution for 30 min. […] THP-1 macrophages were washed with PBS, collected, and CD44 expression was determined using flow cytometry as described above.

THP-1 macrophages [4] = experiment: Cytotoxicity against THP-1 macrophages (Cell Counting Kit-8); conditions: 24 h, CCK-8; for cytotoxic effect against THP-1 macrophages (in words): 1, 10 and 25 μM, three independent experiments
Experimental: Subsequently, 10 μL of CCK-8 solution was added to each well and absorbance was measured 90 min later at 450 nm. Cytotoxicity was expressed as the percentage of viable cells following treatments.

THP-1 macrophages [5] = experiment: ROS generation in MSU-stimulated THP-1 macrophages (flow cytometry); format: cell-based, human; conditions: 10 and 25 μM, 24 h, then MSU 100 μg/mL 6 h; vs MSU alone
Experimental: (§1) THP-1 macrophages (500,000 cells per well) were treated with MSU crystals (100 μg/mL) for 2, 4, and 6 h. ROS staining solution (1:1000 ratio) was added to the wells and incubated for 1 h. Subsequently, cells were collected, washed, and cell-associated fluorescence was determined using flow cytometry. Media were collected at 2, 4, and 6 h, and IL-8 media concentrations were determined by ELISA. […] Subsequently, cells were treated with MSU crystals (100 μg/mL) for 6 h. ROS generation and IL-8 concentrations were determined as described above.

THP-1 macrophages [6] = experiment: IL-8 secretion by MSU-stimulated THP-1 macrophages (ELISA); format: cell-based, human; conditions: 1, 10 and 25 μM, 24 h, then MSU 100 μg/mL 6 h; vs MSU alone
Experimental: as §1

in vitro = conditions: human, cerebrospinal or other body fluid
Experimental: Using seven microcentrifuge tubes, a total of 50 μL of normal SF was diluted with 150 μL of PBS in each tube. Following equilibrating diluted SF to 37 ± 1 °C for 15 min, 50 μL of peptide stock solution (1 mM solution in 100% sterile water) was added to each tube. Next, at different time intervals (0, 1, 2, 3, 4, 6, and 24 h), an aliquot of the reaction solution (100 μL) was sampled. Cold methanol (200 μL) was added to each aliquot in order to precipitate proteins that were present in the SF. This was followed by cooling the solution to 4 °C for 15 min followed by centrifugation at 500 g for 15 min to precipitate SF proteins. To determine the proteolytic stability of the P6 peptide, the supernatant was injected into an analytical RP-HPLC C18 column. In order to measure the concentration of the P6 peptide isolated from SF, the area under the curve (AUC) of the P6 peptide at each time point was estimated using an average of four runs, and normalized to AUC values at time 0 and expressed as the percentage of AUC at time 0.

With hyaluronic acid [HA] the “binding to the CD44 receptor (ELISA absorbance at 450 nm)” value [1] was “concentration-dependent binding” and the “MSU phagocytosis by THP-1 macrophages” value (THP-1 macrophages [2]; 100 μg/mL co-treatment with MSU 100 μg/mL for 4 h) was “significantly reduced MSU phagocytosis”.
With `O=c1[nH]c(=O)c2[nH]c(=O)[nH]c2[nH]1` [UA, uric acid] the “enhancement in cell surface CD44 protein staining compared to untreated control macrophages” value ([3]; UA 10 mg/dL) was “approximately 3 fold”.
For WYKGDKFLYLQNGIEAIADF-NH2 [P6 peptide], the “difference between P6 peptide and HA binding to CD44” value ([1]; across all coating concentrations 1 ng/mL to 1 μg/mL) was “no significant difference”, the “binding to the CD44 receptor (ELISA absorbance at 450 nm)” value [1] was “concentration-dependent binding” and the “cytotoxic effect against THP-1 macrophages (in words)” value (THP-1 macrophages [4]) was “no cytotoxic effect”. The “MSU phagocytosis by THP-1 macrophages” value (THP-1 macrophages [2]; 10 and 25 μM, 24 h pre-treatment, then MSU 100 μg/mL 4 h, vs MSU alone) was “significantly reduced MSU phagocytosis”, the ROS generation (THP-1 macrophages [5]) was “reduced” and the IL-8 secretion (THP-1 macrophages [6]) was “reduced”. It also gave a half-life at 200 μM (in vitro) of roughly 4 h.
In the case of “IL-1β: recombinant human IL-1β, proinflammatory cytokine”, the “enhancement in cell surface CD44 protein staining compared to untreated control macrophages” value ([3]; IL-1β 10 ng/mL) is reported as “approximately two-fold”.
In the case of `COc1cc2c(c(OC)c1OC)-c1ccc(OC)c(=O)cc1[C@@H](NC(C)=O)CC2` [colchicine], the “reduction of macrophage cell viability” value (THP-1 macrophages [4]; 1 μM) is reported as “approximately 50%”, the “reduction of macrophage cell viability” value (THP-1 macrophages [4]; 25 μM) is reported as “approximately 80%” and the “cytotoxic effect against THP-1 macrophages (in words)” value (THP-1 macrophages [4]) is reported as “dose-dependent cytotoxic effect”. The “MSU phagocytosis by THP-1 macrophages” value (THP-1 macrophages [2]; 1, 10 and 25 μM, 24 h pre-treatment, then MSU 100 μg/mL 4 h, vs MSU alone) was “reduced MSU phagocytosis”, the ROS generation (THP-1 macrophages [5]) was “reduced” and the IL-8 secretion (THP-1 macrophages [6]) was “reduced”.
